Data as given in PubChem BioAssay AID328 (DTP/NCI, 2004).
Values joined by “and” are separate entries in the source; they are usually repeats but may differ in a detail not shown here. Equal entries are not always repeated. Inconclusive results and toxic doses are left out.

System: BDF1 mice, P388 leukemia ip, median survival T/C
Experiment: NCI In Vivo Anticancer Drug Screen. Data for tumor model P388 Leukemia (intraperitoneal) in B6D2F1 (BDF1) mice
Conditions: endpoint: median survival time, higher = longer survival
Method in brief: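 Survival ratio, drug arm over vehicle arm, in mice with a transplanted tumour.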

[1] = dose: 200.0 mg/kg/injection, schedule: Q01DX009 (ip), vehicle: saline with Tween-80
[2] = dose: 400.0 mg/kg/injection, schedule: Q04DX003 (ip), vehicle: saline with Tween-80
[3] = dose: 50.0 mg/kg/injection, schedule: Q04DX003 (ip), vehicle: saline with Tween-80
[4] = dose: 100.0 mg/kg/injection, schedule: Q04DX003 (ip), vehicle: saline with Tween-80
[5] = dose: 200.0 mg/kg/injection, schedule: Q04DX003 (ip), vehicle: saline with Tween-80

In the case of `CCOc1cc(/C=N\Nc2nncn2N)ccc1N(CCCl)CCCl`, the T/C (dose: 0.8 mg/kg/injection, schedule: Q04DX003 (ip), vehicle: saline with Tween-80) is reported as 113 % of control, the T/C (dose: 3.0 mg/kg/injection, schedule: Q04DX003 (ip), vehicle: saline with Tween-80) is reported as 154 % of control and the T/C (dose: 5.0 mg/kg/injection, schedule: Q04DX003 (ip), vehicle: saline with Tween-80) is reported as 169 % of control. For the same molecule, the T/C (dose: 8.0 mg/kg/injection, schedule: Q04DX003 (ip), vehicle: saline with Tween-80) was 165 % of control, the T/C (dose: 10.0 mg/kg/injection, schedule: Q04DX003 (ip), vehicle: saline with Tween-80) was 210 % of control and the T/C (dose: 12.0 mg/kg/injection, schedule: Q04DX003 (ip), vehicle: saline with Tween-80) was 203 % of control. For the same molecule, the T/C (dose: 18.0 mg/kg/injection, schedule: Q04DX003 (ip), vehicle: saline with Tween-80) was 278 % of control and 154 % of control, the T/C (dose: 20.0 mg/kg/injection, schedule: Q04DX003 (ip), vehicle: saline with Tween-80) was 275 % of control and the T/C (dose: 26.0 mg/kg/injection, schedule: Q04DX003 (ip), vehicle: saline with Tween-80) was 300 % of control and 163 % of control. For the same molecule, the T/C (dose: 40.0 mg/kg/injection, schedule: Q04DX003 (ip), vehicle: saline with Tween-80) was 300 % of control and 105 % of control and 213 % of control.
With `CCOC(=O)CCN1CCCC1` the T/C (dose: 100.0 mg/kg/injection, schedule: Q01DX009 (ip), vehicle: saline) was 100 % of control, the T/C (dose: 100.0 mg/kg/injection, schedule: Q04DX003 (ip), vehicle: saline) was 100 % of control and the T/C (dose: 200.0 mg/kg/injection, schedule: Q01DX009 (ip), vehicle: saline) was 91 % of control. For the same molecule, the T/C (dose: 200.0 mg/kg/injection, schedule: Q04DX003 (ip), vehicle: saline) was 100 % of control, the T/C (dose: 400.0 mg/kg/injection, schedule: Q01DX009 (ip), vehicle: saline) was 100 % of control and the T/C (dose: 400.0 mg/kg/injection, schedule: Q04DX003 (ip), vehicle: saline) was 95 % of control.
With `CCCCNc1c(OC)ccc2c(C)c3[n+](cc12)CCc1cc(OC)c(OC)cc1-3` the T/C (dose: 1.56 mg/kg/injection, schedule: Q04DX003 (ip), vehicle: water) was 103 % of control and the T/C (dose: 3.13 mg/kg/injection, schedule: Q04DX003 (ip), vehicle: water) was 103 % of control.
In the case of `O=Cc1ccc(C(Cl)(Cl)Cl)cc1`, the T/C (dose: 50.0 mg/kg/injection, schedule: Q01DX009 (ip), vehicle: saline with Tween-80) is reported as 92 % of control, the T/C [1] is reported as 122 % of control and the T/C [2] is reported as 163 % of control.
For `O=[N+]([O-])/C=C/c1cccc(F)c1`, the T/C (dose: 12.5 mg/kg/injection, schedule: Q04DX003 (ip), vehicle: saline with Tween-80) was 107 % of control, the T/C (dose: 25.0 mg/kg/injection, schedule: Q04DX003 (ip), vehicle: saline with Tween-80) was 98 % of control and the T/C [3] was 93 % of control. The T/C [4] was 87 % of control.
`ClCCCCCCCCCCc1ccccc1` was tested, and the T/C [3] was 106 % of control, the T/C [4] was 109 % of control and 110 % of control and the T/C [5] was 108 % of control and 118 % of control.
`C=Cc1c(C)c(O)cc2c1CC[C@@H]1C(C)(C)[C@H](O)[C@H](O)C[C@@]21C` was tested, and the T/C (dose: 100.0 mg/kg/injection, schedule: Q01DX009 (ip), vehicle: Klucel (hydroxypropylcellulose) (HPC)) was 102 % of control, the T/C (dose: 200.0 mg/kg/injection, schedule: Q01DX009 (ip), vehicle: Klucel (hydroxypropylcellulose) (HPC)) was 100 % of control and the T/C (dose: 400.0 mg/kg/injection, schedule: Q01DX009 (ip), vehicle: Klucel (hydroxypropylcellulose) (HPC)) was 113 % of control.
`O=C1NC(=O)C(c2ccccc2)(c2ccc(Cl)cc2Cl)N1` (configuration not stated) was tested, and the T/C (dose: 100.0 mg/kg/injection, schedule: Q01DX009 (ip), vehicle: saline with Tween-80) was 95 % of control, the T/C [4] was 100 % of control and the T/C [1] was 91 % of control. For the same molecule, the T/C [5] was 90 % of control and the T/C [2] was 100 % of control.
For `OCC1OC(n2ccc3c2ncn2nnnc32)C(O)C1O` (configuration not stated), the T/C (dose: 6.25 mg/kg/injection, schedule: Q01DX009 (ip), vehicle: saline) was 97 % of control, the T/C (dose: 12.5 mg/kg/injection, schedule: Q01DX009 (ip), vehicle: saline) was 94 % of control and the T/C (dose: 12.5 mg/kg/injection, schedule: Q04DX003 (ip), vehicle: saline) was 96 % of control. The T/C (dose: 25.0 mg/kg/injection, schedule: Q01DX009 (ip), vehicle: saline) was 94 % of control, the T/C (dose: 25.0 mg/kg/injection, schedule: Q04DX003 (ip), vehicle: saline) was 104 % of control and the T/C (dose: 50.0 mg/kg/injection, schedule: Q04DX003 (ip), vehicle: saline) was 111 % of control.
